For one assay, the target named is T1, ETA (Sus scrofa, UniProt Q29010).
T1 construct: crude receptor membrane samples (ETA) from smooth muscles of porcine thoracic aorta; from tissue; host or cells: porcine thoracic aorta smooth muscle, endothelium removed; crude membranes
T1 sequence (Q29010 21-427): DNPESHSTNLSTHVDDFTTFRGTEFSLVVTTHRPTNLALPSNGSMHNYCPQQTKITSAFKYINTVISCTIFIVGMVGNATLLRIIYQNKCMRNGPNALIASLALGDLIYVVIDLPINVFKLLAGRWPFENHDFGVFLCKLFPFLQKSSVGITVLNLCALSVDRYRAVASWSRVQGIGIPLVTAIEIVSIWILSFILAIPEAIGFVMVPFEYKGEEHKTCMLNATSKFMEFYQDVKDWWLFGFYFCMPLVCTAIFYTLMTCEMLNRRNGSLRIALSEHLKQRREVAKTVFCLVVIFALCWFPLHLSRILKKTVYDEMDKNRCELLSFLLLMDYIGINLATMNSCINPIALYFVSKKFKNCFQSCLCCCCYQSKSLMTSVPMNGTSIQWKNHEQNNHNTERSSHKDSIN
Put plainly: Endothelin binding inhibition experiment, 125I-endothelin-1 binding, ETA, membranes from smooth muscles of porcine thoracic aorta. Conditions: 125I-endothelin-1 2×10^-11 M, 2 hours at 25° C., pH 7.4. As for the experimental part: (§1) Endothelin binding inhibition experiment
Preparation of crude receptor membrane samples (ETA) from smooth muscles of porcine thoracic aorta:
Porcine thoracic aorta which was separated from the fatty tissue and then was removed endothelium with gauze was minced, and then homogenized in three times the volume of Tris-HCl buffer (pH 7.4) (buffer A) containing 0.25M sucrose, 3 mM ethylenediaminetetraacetic acid, 5 μg/ml of aprotinin, 10 μg/ml of pepstatin A, 10 μg/ml of leupeptin, and 0.1 μM p-amidinophenylmethanesulfonyl fluoride. After centrifugation for 30 minutes at 1,000×g, the supernatant was further centrifuged for 30 minutes at 100,000×g. The pellets were suspended in buffer A, and recentrifuged for 30 minutes at 100,000×g. The pellets were suspended in buffer A and the suspension was stored at -80° C. ^125 I-Endothelin-1 binding assay:
The thus-obtained membrane sample (1 μl) was incubated together with ^125 I-endothelin-1 (2×10^-11 M) and various concentrations of the compounds, for 2 hours at 25° C., in 250 μl in total volume of 50 mM Tris-HCl buffer (pH 7.4) containing 0.5% bovine serum albumin. The incubated mixture was filtered by use of HVPP filters (pore size 0.45 μm, product of Milipore). The filters were washed with cold buffer A four times, and then measured with a gamma-ray counter (Aroka Autowell Gamma System ARC-251). Preparation of crude receptor membrane samples (ETB) from rat brain and assay of ^125 I endothelin-1: […]

The next assay concerns the target T2, ETB (Rattus norvegicus, UniProt P21451).
T2 construct: Rat brain tissue was minced, and a crude receptor membrane sample was prepared; from tissue; host or cells: rat brain; crude membranes
T2 sequence (P21451 27-442): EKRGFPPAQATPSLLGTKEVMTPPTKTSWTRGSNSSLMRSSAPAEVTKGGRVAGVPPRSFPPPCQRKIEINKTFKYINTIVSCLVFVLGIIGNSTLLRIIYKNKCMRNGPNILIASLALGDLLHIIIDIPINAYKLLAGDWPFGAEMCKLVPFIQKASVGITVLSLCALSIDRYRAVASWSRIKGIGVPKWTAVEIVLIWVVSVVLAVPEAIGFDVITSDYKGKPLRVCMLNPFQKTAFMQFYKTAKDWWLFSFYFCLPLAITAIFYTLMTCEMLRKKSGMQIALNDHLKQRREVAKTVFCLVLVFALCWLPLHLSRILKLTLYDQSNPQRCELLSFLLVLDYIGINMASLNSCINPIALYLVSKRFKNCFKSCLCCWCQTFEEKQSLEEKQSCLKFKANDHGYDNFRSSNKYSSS
The assay can be described thus: Endothelin binding inhibition experiment, 125I-endothelin-1 binding, ETB, membranes from rat brain. Conditions: 125I-endothelin-1 2×10^-11 M, 2 hours at 25° C., pH 7.4. As for the experimental part: as §1
The thus-obtained membrane sample (1 μl) was incubated together with ^125 I-endothelin-1 (2×10^-11 M) and various concentrations of the compounds, for 2 hours at 25° C., in 250 μl in total volume of 50 mM Tris-HCl buffer (pH 7.4) containing 0.5% bovine serum albumin. The incubated mixture was filtered by use of HVPP filters (pore size 0.45 μm, product of Milipore). The filters were washed with cold buffer A four times, and then measured with a gamma-ray counter (Aroka Autowell Gamma System ARC-251). Preparation of crude receptor membrane samples (ETB) from rat brain and assay of ^125 I endothelin-1:
Rat brain tissue was minced, and a crude receptor membrane sample was prepared in a manner similar to that used in the aforementioned case of porcine thoracic aorta. Also, ^125 I-endothelin-1 assay was performed in the same manner as described above.

What is called IC50 is the point on the concentration scale where inhibition reaches its midpoint. A lower IC50 goes with greater potency in that assay.

For the molecule `COc1ccccc1Oc1c(NS(=O)(=O)c2ccc(C(C)(C)C)cc2)nc(N2CCOCC2)nc1OCCC(=O)Nc1ccccc1C(C)C` [Example 2, N-(2-isopropylphenyl)-3-[6-(4-t-butylphenylsulfonylamino)-5-(2-methoxyphenoxy)-2-morpholino-4-pyrimidinyloxy]propionamide], the values for the IC50 on ETA and on ETB were 63 nM and 0.86 nM, respectively.

In the case of `COc1ccccc1Oc1c(NS(=O)(=O)c2ccc(C(C)(C)C)cc2)nc(N2CCOCC2)nc1OCCC(=O)Nc1ccccn1` [Example 3, N-(2-pyridyl)-3-[6-(4-t-butylphenylsulfonylamino)-5-(2-methoxyphenoxy)-2-morpholino-4-pyrimidinyloxy]propionamide], the IC50 on ETA is 32 nM; at ETB, 29 nM.

For `COc1ccccc1Oc1c(NS(=O)(=O)c2ccc(C(C)(C)C)cc2)nc(N2CCN(C=O)CC2)nc1OCCC(=O)Nc1ccccc1C(C)C` [Example 13, N-(2-isopropylphenyl)-3-[6-(4-t-butylphenylsulfonylamino)-2-(4-formylpiperazinyl)-5-(2-methoxyphenoxy)-4-pyrimidinyloxy]-propionamide], the results for the IC50 on ETA and on ETB were 68 nM and 5.4 nM, respectively.

`COc1ccccc1Oc1c(NS(=O)(=O)c2ccc(C(C)(C)C)cc2)nc(N2CCOCC2)nc1OCCC(=O)OCc1ccccc1` [Example 23, benzyl 3-[6-(4-t-butylphenylsulfonylamino)-5-(2-methoxyphenoxy)-2-morpholino-4-pyrimidinyloxy]propionate]: the IC50 at ETA stood at 240 nM; at ETB, 5.1 nM.

Values taken from patent US5883092A, “Pyrimidine derivatives as endothelin antagonists” (Kowa Co., Ltd., priority 1995, dated 1999).
